Reference: patent publication US20250163043A1 (TRANSTHERA SCIENCES (NANJING), INC., priority 2021, published 2025)

Target: CDK9/CycT1 (Homo sapiens, UniProt P50750)
Assay: ADP-Glo kinase assay on CDK enzymatic activity, CDK9/CycT1
Format: biochemical
Conditions: 10 concentrations from 10 μM, 4-fold, 60 min room temperature
From the text: Test samples: the compounds of the present invention, having structures shown above.
ADP-Glo Kinase Assay (ADP-Glo kinase kit), DMSO (dimethyl sulfoxide), CDK9/CycT1 (cyclin-dependent kinase 9/cyclin T1), CDK tide (cyclin-dependent kinase substrate peptide fragments), CDK1/CycE1 (cyclin-dependent kinase 1/cyclin E1), CDK2/CycA2 (cyclin-dependent kinase 2/cyclin A2), CDK3/CycE1 (cyclin-dependent kinase 3/cyclin E1), CDK4/CycD3 (cyclin-dependent kinase 4/cyclin D3), CDK5/p25NCK (cyclin-dependent kinase 5/p25), and AZD 4573.
A 384-well white plate, a 96-well plate, a microplate oscillator, a centrifuge, and a microplate reader.
The compounds were dissolved in DMSO and diluted 4-fold in the 96-well plate to obtain stock solutions with 10 concentration gradients, and added into a 384-well plate system to obtain a series of 10 concentration gradients of compound solutions with final concentrations of 10 μM starting and 4-fold gradient decreasing. 1 μM AZD4573 was used as compound positive control (PC) and 0.5% DMSO as solvent vehicle control (VC), ten duplicated wells each for PC and VC.
1 μL of compound solution and 2 μL of 2× kinase solution were transferred to each well, and the plate was centrifuged at 1000 g for 30 s and left at room temperature for 10 min. A mixture of 2× substrate and ATP was prepared in 1× kinase buffer. The reaction was started after adding 2 μL of substrate and ATP into the plate. The plate was centrifuged at 1000 g for 30 s. The assay plate was closed and left at room temperature for 60 min. The reaction system was added with 4 μL of ADP Glo reagent, centrifuged at 1000 rpm for 1 min, and incubated at room temperature for 40 min. The reaction system was added with 8 μL of kinase assay reagent, centrifuged at 1000 rpm for 1 min and incubated at room temperature for 40 min. The […] was read on Biotek.
The inhibition rate was calculated according to the following formula: […]
Lumcmpd: compound fluorescence reading; Lumpositive: average value of the fluorescence reading of positive compound control; Lumvehicle: average value of the fluorescence reading of solvent vehicle control.
IC50 values were fitted using GraphPad 7.0 based on inhibition rates of compounds at different concentrations.

CDK9/CycT1, sequence (P50750 whole entry): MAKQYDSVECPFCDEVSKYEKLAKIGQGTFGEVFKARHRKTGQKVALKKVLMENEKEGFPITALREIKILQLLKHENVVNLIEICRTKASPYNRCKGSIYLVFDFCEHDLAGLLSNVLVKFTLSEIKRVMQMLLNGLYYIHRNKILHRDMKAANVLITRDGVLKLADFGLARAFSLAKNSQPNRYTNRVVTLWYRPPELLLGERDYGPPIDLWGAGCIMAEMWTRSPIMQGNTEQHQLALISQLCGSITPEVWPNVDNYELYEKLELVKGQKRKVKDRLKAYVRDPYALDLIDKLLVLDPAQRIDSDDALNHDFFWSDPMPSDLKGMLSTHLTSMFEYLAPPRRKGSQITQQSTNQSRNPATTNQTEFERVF
CDK9/CycT1, sequence (O60563 whole entry partner): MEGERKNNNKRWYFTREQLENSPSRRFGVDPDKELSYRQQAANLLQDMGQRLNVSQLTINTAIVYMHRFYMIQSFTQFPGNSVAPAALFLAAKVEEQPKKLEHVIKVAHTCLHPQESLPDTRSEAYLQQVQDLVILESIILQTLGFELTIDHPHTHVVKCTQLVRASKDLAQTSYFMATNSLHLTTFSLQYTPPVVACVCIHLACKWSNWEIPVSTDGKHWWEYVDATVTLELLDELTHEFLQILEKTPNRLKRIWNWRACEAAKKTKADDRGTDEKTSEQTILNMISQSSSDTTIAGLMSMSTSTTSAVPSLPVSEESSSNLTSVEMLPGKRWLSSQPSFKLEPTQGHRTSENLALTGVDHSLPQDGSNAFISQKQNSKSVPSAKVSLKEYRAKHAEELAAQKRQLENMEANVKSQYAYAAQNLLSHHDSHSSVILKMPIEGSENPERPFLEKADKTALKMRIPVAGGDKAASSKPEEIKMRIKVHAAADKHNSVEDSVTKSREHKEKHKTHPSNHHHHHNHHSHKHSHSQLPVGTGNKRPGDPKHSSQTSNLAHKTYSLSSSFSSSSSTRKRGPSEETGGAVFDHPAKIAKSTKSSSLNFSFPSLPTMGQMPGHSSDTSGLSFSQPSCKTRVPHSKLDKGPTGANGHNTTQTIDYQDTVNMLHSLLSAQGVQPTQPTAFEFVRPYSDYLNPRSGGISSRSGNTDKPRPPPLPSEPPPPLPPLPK

Row | Structure (SMILES) | IC50
1 | CCOc1nc(C#N)cc2cnc(N[C@H]3C[C@H](N)C3)nc12 [Compound C47, 2-(((1r,3r)-3-aminocyclobutyl)amino)-8-ethoxypyrido[3,4-d]pyrimidine-6-carbonitrile] | 24 nM
2 | CC(C)(C)Nc1nc(C(F)F)cc2cnc(N[C@H]3C[C@@H](N)C3)cc12 [Compound 203, N^7-((1s,3s)-3-aminocyclobutyl)-N^1-(tert-butyl)-3-(difluoromethyl)-2,6-naphthyridine-1,7-diamine] | 1 nM
3 | N#Cc1cc2cnc(N[C@H]3CCCNC3)cc2c(OC2CCC2)n1 [Compound 199, (S)-1-cyclobutoxy-7-(piperidin-3-ylamino)-2,6-naphthyridine-3-carbonitrile] | 4 nM
4 | CC(C)Nc1nc(C#N)cc2cnc(NC3CCN(CC(=O)N(C)C)CC3)nc12 [Compound C3, 2-(4-((6-cyano-8-(isopropylamino)pyrido[3,4-d]pyrimidin-2-yl)amino)piperidin-1-yl)-N,N-dimethylacetamide] | 27 nM
5 | CC(C)Nc1nc(C#N)cc2cnc(N[C@H]3CCCC[C@@H]3O)cc12 [Compound 156, 7-(((1S,2S)-2-hydroxycyclohexyl)amino)-1-(isopropylamino)-2,6-naphthyridine-3-carbonitrile] | 14 nM
6 | CC(C)Nc1nc(C#N)cc2cnc(N[C@H]3C[C@](C)(O)C3)nc12 [Compound C11, 2-(((1r,3r)-3-hydroxy-3-methylcyclobutyl)amino)-8-(isopropylamino)pyrido[3,4-d]pyrimidine-6-carbonitrile] | 1 nM
7 | N#Cc1cc2cnc(N[C@H]3C[C@@H](O)C3)cc2c(N[C@@H]2CCOC2)n1 [Compound 176, 7-(((1s,3S)-3-hydroxycyclobutyl)amino)-1-(((R)-tetrahydrofuran-3-yl)amino)-2,6-naphthyridine-3-carbonitrile] | 3 nM
8 | CC(C)Nc1nc(C#N)cc2cnc(N[C@@H]3CCNC3=O)nc12 [Compound 124, (R)-8-(isopropylamino)-2-((2-oxopyrrolidin-3-yl)amino)pyrido[3,4-d]pyrimidine-6-carbonitrile] | 26 nM
9 | COC[C@H](C)Nc1nc(C#N)cc2cnc(N[C@H]3C[C@H](N)C3)nc12 [Compound C42, 2-(((1r,3S)-3-aminocyclobutyl)amino)-8-(((S)-1-methoxypropan-2-yl)amino)pyrido[3,4-d]pyrimidine-6-carbonitrile] | 2 nM
10 | CC(C)Nc1nc(C(F)F)c(C#N)c2cnc(N[C@H]3CCCNC3)nc12 [Compound 111, (S)-6-(difluoromethyl)-8-(isopropylamino)-2-(piperidin-3-ylamino)pyrido[3,4-d]pyrimidine-5-carbonitrile] | 69 nM
11 | N#Cc1cc2cnc(N[C@H]3C[C@H](N)C3)nc2c(N[C@@H]2CCCOC2)n1 [Compound C39, 2-(((1r,3R)-3-aminocyclobutyl)amino)-8-(((R)-tetrahydro-2H-pyran-3-yl)amino)pyrido[3,4-d]pyrimidine-6-carbonitrile] | 1 nM

Further compounds by falling IC50, results first:

Row | IC50 | Structure (SMILES)
12 | 47 nM | CC(C)Nc1nc(C#N)cc2cnc(N[C@@H]3CCC[C@H]3N)cc12 [Compound 165, 7-(((1R,2R)-2-aminocyclopentyl)amino)-1-(isopropylamino)-2,6-naphthyridine-3-carbonitrile]
13 | 33 nM | N#Cc1cc2cnc(N[C@H]3CCCNC3)cc2c(O[C@H]2CCOC2)n1 [Compound 155, 7-(((S)-piperidin-3-yl)amino)-1-(((S)-tetrahydrofuran-3-yl)oxy)-2,6-naphthyridine-3-carbonitrile]
14 | 32 nM | CC(C)Nc1nc(C#N)cc2cnc(NC3CCS(=O)(=O)CC3)nc12 [Compound 120, 2-((1,1-dioxidotetrahydro-2H-thiopyran-4-yl)amino)-8-(isopropylamino)pyrido[3,4-d]pyrimidine-6-carbonitrile]
15 | 26 nM | CC(C)Nc1nc(C#N)cc2cnc(N[C@H]3CCCC[C@H]3O)cc12 [Compound 160, 7-(((1S,2R)-2-hydroxycyclohexyl)amino)-1-(isopropylamino)-2,6-naphthyridine-3-carbonitrile]
16 | 22 nM | CC(C)Nc1nc(C#N)cc2cnc(N[C@@H]3CCCC[C@H]3O)cc12 [Compound 159, 7-(((1R,2R)-2-hydroxycyclohexyl)amino)-1-(isopropylamino)-2,6-naphthyridine-3-carbonitrile]
17 | 20 nM | CC(C)Nc1nc(C#N)cc2cnc(N[C@@H]3CCCNC3)nc12 [Compound C44, (R)-8-(isopropylamino)-2-(piperidin-3-ylamino)pyrido[3,4-d]pyrimidine-6-carbonitrile]
18 | 20 nM | CC(C)Oc1nc(C#N)cc2cnc(N[C@H]3CCCNC3)nc12 [Compound C49, (S)-8-isopropoxy-2-(piperidin-3-ylamino)pyrido[3,4-d]pyrimidine-6-carbonitrile]
19 | 15 nM | N#Cc1cc2cnc(N[C@H]3CCCNC3)cc2c(NC2COC2)n1 [Compound 182, (S)-1-(oxetan-3-ylamino)-7-(piperidin-3-ylamino)-2,6-naphthyridine-3-carbonitrile]
20 | 14 nM | CC(C)Nc1nc(C#N)cc2cnc(N[C@@H]3CCCC[C@@H]3O)cc12 [Compound 161, 7-(((1R,2S)-2-hydroxycyclohexyl)amino)-1-(isopropylamino)-2,6-naphthyridine-3-carbonitrile]
21 | 11 nM | CSc1nc(C#N)cc2cnc(N[C@H]3CCCNC3)cc12 [Compound 192, (S)-1-(methylthio)-7-(piperidin-3-ylamino)-2,6-naphthyridine-3-carbonitrile]
22 | 10 nM | CCC(CC)c1nc(C#N)cc2cnc(N[C@H]3CCCNC3)cc12 [Compound 188, (S)-1-(pentan-3-yl)-7-(piperidin-3-ylamino)-2,6-naphthyridine-3-carbonitrile]
23 | 4 nM | CC(=O)N1CCN([C@H]2C[C@H](Nc3ncc4cc(C#N)nc(NC(C)C)c4n3)C2)CC1 [Compound C32, 2-(((1r,3r)-3-(4-acetylpiperazin-1-yl)cyclobutyl)amino)-8-(isopropylamino)pyrido[3,4-d]pyrimidine-6-carbonitrile]
24 | 4 nM | CC(C)Nc1nc(C#N)cc2cnc(N[C@H]3C[C@H](N4CCOCC4)C3)nc12 [Compound C21, 8-(isopropylamino)-2-(((1r,3r)-3-morpholinocyclobutyl)amino)pyrido[3,4-d]pyrimidine-6-carbonitrile]
25 | 2 nM | CC(C)Nc1nc(C#N)cc2cnc(N[C@H]3C[C@@]4(CCN4)C3)nc12 [Compound C37, 2-(((4r,6s)-1-azaspiro[3.3]heptan-6-yl)amino)-8-(isopropylamino)pyrido[3,4-d]pyrimidine-6-carbonitrile]
26 | 2 nM | CC(C)Nc1nc(C#N)cc2cnc(N[C@H]3C[C@@H](CN)C3)nc12 [Compound C17, 2-(((1s,3s)-3-(aminomethyl)cyclobutyl)amino)-8-(isopropylamino)pyrido[3,4-d]pyrimidine-6-carbonitrile]
27 | 2 nM | CO[C@H]1C[C@H](Nc2ncc3cc(C#N)nc(NC(C)C)c3n2)C1 [Compound C12, 8-(isopropylamino)-2-(((1r,3r)-3-methoxycyclobutyl)amino)pyrido[3,4-d]pyrimidine-6-carbonitrile]
28 | 1 nM | CC(C)(C)Nc1nc(C#N)cc2cnc(N[C@H]3C[C@](C)(N)C3)nc12 [Compound C34, 2-(((1r,3r)-3-amino-3-methylcyclobutyl)amino)-8-(tert-butylamino)pyrido[3,4-d]pyrimidine-6-carbonitrile]
